Source: ChEMBL document CHEMBL5465560, “Selectivity Literature for EUbOPEN Chemogenomic Library” (2024)

Tests used:
[1] = biological target: T1, Receptor-interacting serine/threonine-protein kinase 1 (Homo sapiens) (UniProt Q13546); conditions: at 10 µM
T1 sequence (whole entry): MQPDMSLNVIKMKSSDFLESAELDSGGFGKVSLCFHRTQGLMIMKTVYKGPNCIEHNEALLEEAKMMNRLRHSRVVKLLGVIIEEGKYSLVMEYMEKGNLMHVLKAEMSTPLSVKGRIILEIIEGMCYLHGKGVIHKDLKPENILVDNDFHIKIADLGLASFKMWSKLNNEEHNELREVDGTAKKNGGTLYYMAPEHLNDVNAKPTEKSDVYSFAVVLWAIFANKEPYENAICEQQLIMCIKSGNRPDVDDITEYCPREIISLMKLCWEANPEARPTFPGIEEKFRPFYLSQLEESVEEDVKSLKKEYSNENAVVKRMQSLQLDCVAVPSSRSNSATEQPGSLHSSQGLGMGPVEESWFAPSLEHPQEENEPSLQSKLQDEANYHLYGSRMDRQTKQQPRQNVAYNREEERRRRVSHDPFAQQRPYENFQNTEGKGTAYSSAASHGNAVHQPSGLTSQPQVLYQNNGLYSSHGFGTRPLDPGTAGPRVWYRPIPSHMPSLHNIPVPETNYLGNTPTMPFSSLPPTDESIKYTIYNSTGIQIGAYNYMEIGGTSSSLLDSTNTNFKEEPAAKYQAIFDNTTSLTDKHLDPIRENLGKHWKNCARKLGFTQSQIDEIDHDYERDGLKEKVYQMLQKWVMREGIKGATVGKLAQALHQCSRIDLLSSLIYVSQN

[2] = biological target: MAP kinase-activated protein kinase 2 (Homo sapiens, UniProt P49137); experiment: Selectivity interaction (KinomeScan (DiscoverX)) EUB0000229b MAPKAPK2; conditions: at 10 µM
Chain of MAP kinase-activated protein kinase 2 (P49137 whole entry, looked up): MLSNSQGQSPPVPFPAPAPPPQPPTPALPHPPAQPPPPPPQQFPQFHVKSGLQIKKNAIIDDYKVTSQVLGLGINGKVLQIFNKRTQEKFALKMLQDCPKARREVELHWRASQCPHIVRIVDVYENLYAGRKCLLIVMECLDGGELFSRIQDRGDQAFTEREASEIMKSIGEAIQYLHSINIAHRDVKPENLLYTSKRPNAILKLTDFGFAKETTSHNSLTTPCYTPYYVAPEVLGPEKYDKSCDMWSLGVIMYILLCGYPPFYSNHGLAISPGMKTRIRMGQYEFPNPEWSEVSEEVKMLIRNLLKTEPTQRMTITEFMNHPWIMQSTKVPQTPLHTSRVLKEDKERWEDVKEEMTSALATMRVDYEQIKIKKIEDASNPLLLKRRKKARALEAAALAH

[3] = biological target: T2, Myotonin-protein kinase (Homo sapiens) (UniProt Q09013); experiment: Selectivity interaction (LanthaScreen Eu Kinase Binding Assay) EUB0001632a DMPK; conditions: at 10 µM
T2 sequence (whole entry): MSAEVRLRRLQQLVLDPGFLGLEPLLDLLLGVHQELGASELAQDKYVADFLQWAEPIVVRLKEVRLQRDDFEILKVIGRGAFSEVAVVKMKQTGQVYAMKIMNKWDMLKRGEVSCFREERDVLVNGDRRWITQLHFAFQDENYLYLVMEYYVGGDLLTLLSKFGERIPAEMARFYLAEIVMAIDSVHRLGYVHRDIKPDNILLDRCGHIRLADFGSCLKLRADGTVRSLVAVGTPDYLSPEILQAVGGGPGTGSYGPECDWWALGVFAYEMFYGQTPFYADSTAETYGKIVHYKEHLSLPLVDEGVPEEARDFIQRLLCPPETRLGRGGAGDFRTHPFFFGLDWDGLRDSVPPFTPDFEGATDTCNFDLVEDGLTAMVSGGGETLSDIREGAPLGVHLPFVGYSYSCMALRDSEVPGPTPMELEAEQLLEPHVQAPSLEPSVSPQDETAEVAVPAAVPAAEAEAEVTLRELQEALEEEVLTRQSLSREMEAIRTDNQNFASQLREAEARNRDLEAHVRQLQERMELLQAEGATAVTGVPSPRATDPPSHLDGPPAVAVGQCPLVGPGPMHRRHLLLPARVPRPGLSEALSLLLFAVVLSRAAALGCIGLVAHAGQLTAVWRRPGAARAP

[4] = biological target: Insulin receptor-related protein (Homo sapiens) (UniProt P14616); experiment: Selectivity interaction (Kinase panel (Invitrogen)) EUB0000639a INSRR; conditions: at 200 nM
Chain of Insulin receptor-related protein (Homo sapiens) (P14616 27-742 limits assumed): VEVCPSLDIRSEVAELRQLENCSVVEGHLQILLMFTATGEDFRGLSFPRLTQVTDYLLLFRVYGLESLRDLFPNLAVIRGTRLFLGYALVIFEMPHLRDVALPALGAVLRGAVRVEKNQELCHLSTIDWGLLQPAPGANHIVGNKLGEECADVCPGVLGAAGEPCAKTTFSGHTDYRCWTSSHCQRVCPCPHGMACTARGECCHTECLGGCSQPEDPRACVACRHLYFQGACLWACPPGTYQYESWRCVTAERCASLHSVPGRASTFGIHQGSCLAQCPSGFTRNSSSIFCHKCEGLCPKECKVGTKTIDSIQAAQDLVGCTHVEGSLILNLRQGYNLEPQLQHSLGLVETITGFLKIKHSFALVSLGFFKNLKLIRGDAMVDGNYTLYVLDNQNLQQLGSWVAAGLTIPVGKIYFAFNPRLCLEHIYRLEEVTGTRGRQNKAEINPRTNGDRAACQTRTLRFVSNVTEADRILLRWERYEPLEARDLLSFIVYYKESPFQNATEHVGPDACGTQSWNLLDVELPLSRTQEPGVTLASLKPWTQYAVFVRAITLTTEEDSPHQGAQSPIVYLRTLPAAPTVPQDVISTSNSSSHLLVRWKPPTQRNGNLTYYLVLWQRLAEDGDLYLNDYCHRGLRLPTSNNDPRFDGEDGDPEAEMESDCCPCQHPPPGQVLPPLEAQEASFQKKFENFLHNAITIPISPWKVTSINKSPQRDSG
Chain of Insulin receptor-related protein (Homo sapiens) (P14616 747-1297 limits assumed): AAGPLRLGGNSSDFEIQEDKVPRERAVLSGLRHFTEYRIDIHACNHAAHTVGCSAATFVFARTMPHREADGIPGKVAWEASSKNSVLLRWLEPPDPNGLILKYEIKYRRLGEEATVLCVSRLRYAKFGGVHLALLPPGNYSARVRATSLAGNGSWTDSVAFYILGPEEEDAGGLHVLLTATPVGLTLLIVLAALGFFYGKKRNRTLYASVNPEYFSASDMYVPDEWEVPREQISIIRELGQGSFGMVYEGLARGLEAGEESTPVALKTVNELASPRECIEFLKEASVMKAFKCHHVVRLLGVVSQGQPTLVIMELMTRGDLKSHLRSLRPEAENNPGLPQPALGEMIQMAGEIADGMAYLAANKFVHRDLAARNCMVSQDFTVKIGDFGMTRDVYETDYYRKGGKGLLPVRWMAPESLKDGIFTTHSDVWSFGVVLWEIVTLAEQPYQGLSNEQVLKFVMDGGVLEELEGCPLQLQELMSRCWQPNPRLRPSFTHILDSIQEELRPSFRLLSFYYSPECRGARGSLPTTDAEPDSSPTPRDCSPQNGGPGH

[5] = biological target: Cyclin-dependent kinase 17 (Homo sapiens) (UniProt Q00537); experiment: Selectivity interaction (ActivX KiNativ screen (kinase selectivity in THP-1 cell lysates)) EUB0000639a CDK17; type: subcellular; conditions: lysate, at 0.2 µM
Chain of Cyclin-dependent kinase 17 (Homo sapiens) (Q00537 whole entry, looked up): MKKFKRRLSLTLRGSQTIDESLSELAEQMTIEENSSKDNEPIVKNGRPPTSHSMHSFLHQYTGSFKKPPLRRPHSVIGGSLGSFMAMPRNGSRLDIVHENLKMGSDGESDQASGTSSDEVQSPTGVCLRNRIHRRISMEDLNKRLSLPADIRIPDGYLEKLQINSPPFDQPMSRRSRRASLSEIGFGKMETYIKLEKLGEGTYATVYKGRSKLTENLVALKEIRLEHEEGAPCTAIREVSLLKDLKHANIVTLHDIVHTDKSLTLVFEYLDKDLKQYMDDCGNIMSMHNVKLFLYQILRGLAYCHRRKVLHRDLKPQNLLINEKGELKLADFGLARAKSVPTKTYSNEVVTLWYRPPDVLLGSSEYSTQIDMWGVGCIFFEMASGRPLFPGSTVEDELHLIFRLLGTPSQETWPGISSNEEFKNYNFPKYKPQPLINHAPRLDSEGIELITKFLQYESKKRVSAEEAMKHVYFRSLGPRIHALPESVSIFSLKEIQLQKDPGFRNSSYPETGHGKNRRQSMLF

[6] = biological target: T3, Serine/threonine-protein kinase ULK3 (Homo sapiens) (UniProt Q6PHR2); experiment: Selectivity interaction (ActivX KiNativ screen (kinase selectivity in THP-1 cell lysates)) EUB0000639a ULK3; type: subcellular; conditions: lysate
T3 sequence (whole entry): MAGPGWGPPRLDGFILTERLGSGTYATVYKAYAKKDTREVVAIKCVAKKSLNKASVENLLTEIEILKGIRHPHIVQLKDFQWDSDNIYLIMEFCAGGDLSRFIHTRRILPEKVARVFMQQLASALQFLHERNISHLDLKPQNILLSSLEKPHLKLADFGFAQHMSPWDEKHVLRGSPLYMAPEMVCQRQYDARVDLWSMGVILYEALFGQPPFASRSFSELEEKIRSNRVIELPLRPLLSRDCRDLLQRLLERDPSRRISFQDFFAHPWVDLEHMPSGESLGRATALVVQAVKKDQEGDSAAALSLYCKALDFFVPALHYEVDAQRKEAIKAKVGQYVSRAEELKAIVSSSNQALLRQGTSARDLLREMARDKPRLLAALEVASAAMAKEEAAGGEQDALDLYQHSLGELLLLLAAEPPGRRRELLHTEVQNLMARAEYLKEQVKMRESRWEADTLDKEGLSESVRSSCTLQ

[7] = biological target: Ribosomal protein S6 kinase alpha-5 (Homo sapiens) (UniProt O75582); experiment: Selectivity interaction (Ambit KINOMEscan and KiNATiv profiling in Jurkat cells) EUB0000090b RPS6KA5; type: cell-based; conditions: at 1 µM
Chain of Ribosomal protein S6 kinase alpha-5 (Homo sapiens) (O75582 whole entry, looked up): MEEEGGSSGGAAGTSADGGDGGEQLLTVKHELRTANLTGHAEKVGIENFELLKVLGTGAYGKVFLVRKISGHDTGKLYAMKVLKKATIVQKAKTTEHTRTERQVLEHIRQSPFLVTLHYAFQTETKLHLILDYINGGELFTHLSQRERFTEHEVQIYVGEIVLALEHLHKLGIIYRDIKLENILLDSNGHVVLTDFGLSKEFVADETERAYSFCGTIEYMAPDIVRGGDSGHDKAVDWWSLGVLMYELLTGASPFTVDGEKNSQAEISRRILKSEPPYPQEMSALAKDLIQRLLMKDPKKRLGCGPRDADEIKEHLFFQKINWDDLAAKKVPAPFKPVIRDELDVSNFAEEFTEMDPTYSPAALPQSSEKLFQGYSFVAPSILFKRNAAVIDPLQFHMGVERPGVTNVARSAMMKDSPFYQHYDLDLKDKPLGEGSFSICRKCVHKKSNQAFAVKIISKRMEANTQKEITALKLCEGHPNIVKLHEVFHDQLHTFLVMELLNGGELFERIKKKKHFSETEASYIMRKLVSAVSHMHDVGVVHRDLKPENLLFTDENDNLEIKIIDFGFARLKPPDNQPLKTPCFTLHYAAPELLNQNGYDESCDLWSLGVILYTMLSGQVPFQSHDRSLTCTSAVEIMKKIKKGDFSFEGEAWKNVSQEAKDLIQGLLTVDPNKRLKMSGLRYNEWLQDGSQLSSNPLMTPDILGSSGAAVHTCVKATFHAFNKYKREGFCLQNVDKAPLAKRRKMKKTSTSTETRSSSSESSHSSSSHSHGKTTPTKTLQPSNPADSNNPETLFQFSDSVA

Q: `CCN(CC)CCCCNc1ncc2cc(-c3cc(OC)cc(OC)c3)c(NC(=O)NC(C)(C)C)nc2n1` was tested. Which % of control [1] did it give?
A: Its % of control is 100%.

Q: How did the % binding [2] turn out when `COc1cc(N(C)c2ccnc3ccc(C(F)(F)F)cc23)cc(OC)c1OC` was run?
A: Its % binding is 93%.

Q: Which % of inhibition [3] does the source give for `Cn1cc(-n2cnc3c(NCc4nc5cc(Cl)c(Cl)cc5[nH]4)nc(N4CCOCC4)nc32)cn1` here?
A: The % of inhibition was -4.81%.

Q: What does the source list for `CC[C@@H]1[C@H](F)C(=O)N[C@@H]1COc1nccc2cc(C(N)=O)c(OC)cc12` [ZIMLOVISERTIB]?
A: % of inhibition [4]: 2.97%; % of inhibition [5]: 0.4%; % of inhibition ([6]; at 0.01 µM): 11.3%; % of inhibition ([6]; at 0.04 µM): 2.1%; % of inhibition ([6]; at 0.2 µM): 3.4%; % of inhibition ([6]; at 1 µM): 5.1%; % of inhibition ([6]; at 5 µM): -3.4%

Q: Which % of control [7] does the source give for `CN(C)C/C=C/C(=O)Nc1ccc(C(=O)N2CCCC(Nc3ncc(Cl)c(-c4c[nH]c5ccccc45)n3)C2)cc1` (stereo unspecified) here?
A: The % of control was 86%.
